This is an account of results in patent publication US10398689B2, “Benzopiperidine derivative, preparation method thereof and medical use thereof” (Jiangsu Hengrui Medicine Co., Ltd., priority 2015, dated 2019).

SMILES strings stand for the structures.

The target in data set [1] is T1, ER (estrogen receptor) (Homo sapiens, UniProt P03372).
T1 construct: MCF-7/ERE-luciferase monoclonal cells were selected by transfection of MCF-7; host or cells: MCF-7/ERE-luciferase (only the ERE-luciferase reporter was transfected)
T1 sequence (P03372 1-595): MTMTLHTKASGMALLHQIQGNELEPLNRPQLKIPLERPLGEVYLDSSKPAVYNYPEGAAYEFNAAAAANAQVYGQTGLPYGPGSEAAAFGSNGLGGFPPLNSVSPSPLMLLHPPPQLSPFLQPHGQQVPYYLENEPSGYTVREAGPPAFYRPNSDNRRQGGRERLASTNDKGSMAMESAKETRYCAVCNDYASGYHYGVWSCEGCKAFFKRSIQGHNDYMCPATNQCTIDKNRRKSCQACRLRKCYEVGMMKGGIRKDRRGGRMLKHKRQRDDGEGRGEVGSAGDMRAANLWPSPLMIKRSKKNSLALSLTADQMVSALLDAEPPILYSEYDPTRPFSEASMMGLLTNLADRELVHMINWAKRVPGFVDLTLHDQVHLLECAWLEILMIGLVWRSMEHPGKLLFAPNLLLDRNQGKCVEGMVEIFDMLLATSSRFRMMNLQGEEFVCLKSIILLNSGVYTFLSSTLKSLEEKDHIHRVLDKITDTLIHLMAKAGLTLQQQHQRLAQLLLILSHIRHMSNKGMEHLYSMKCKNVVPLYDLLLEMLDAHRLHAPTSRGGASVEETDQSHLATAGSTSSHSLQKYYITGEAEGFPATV
Briefly: Inhibition of the binding of estrogen (E) to estrogen receptor (ER), MCF-7/ERE-luciferase reporter cells. Format: cell-based. Particulars: MCF-7/ERE-luciferase cells, 0.1 nM estradiol, 24 hours, chemiluminescence; read-out: IC50 value of inhibition effect on the binding of E to ER. As to the method: The compounds of the present invention have an inhibition effect on the binding of E (estrogen) to ER (estrogen receptor), thereby blocking the binding of a complex of E and ER complex to ERE (estrogen responsive element), and subsequently blocking the expression of downstream luciferase protein.
The inhibition effect of the compounds on the binding of E to ER in vitro was tested by the following method.
The object of this experiment was to determine the inhibition effect of the compounds on the binding of E to ER, and the in vitro activity of the compounds was evaluated according to the IC50 values.
ERE was cloned into the upstream of the luciferase gene, and MCF-7/ERE-luciferase monoclonal cells were selected by transfection of MCF-7 (Cell Bank of Chinese Academy of Sciences typical culture preservation Committee, TCHu74). MCF-7/ERE-luciferase cells were inoculated into the MEM medium (hyclone, SH30024.01B) containing 10% charcoal stripped FBS (Moregate, FBSF), 1% sodium pyruvate (Sigma, S8636), 1% nonessential amino acids (Sigma, M7145) and 500 μg/ml G418 in a 96-well plates with a density of 30,000 cells/well, and the cells were incubated under the conditions of 37° C., and 5% CO2. The drug was prepared as a 20 mM stock solution that was later diluted with 100% DMSO in 10 fold concentration gradient, and then diluted 20-fold with the medium DMEM. After incubation for 24 hours, the medium was removed, then 0.1 nM estradiol (Sigma, E2758) and 10 μl of the drug diluted with the medium were added to each well, and the control group was added with DMSO. The plate was gently shaken and incubated in a incubator at 37° C., 5% CO2. After 24 hours, the cell culture medium was discarded, Then, 50 μl of the prepared luciferase substrate (Promega, E6110) was added to each well, and the plate was placed in the dark at room temperature for 10-15 minutes, then the chemiluminescence signal value was determined.
The inhibition effect of the compounds of the present invention on the binding of E to ER was tested by the experiment described above. The values of the chemiluminescence signal vs the logarithmic concentrations of the compounds were plotted using Graphpad Prism, and the measured IC50 values are shown in Table 1.

Data set [2] is described as follows: Pharmacokinetics assay in BALB/C nude mice after intragastrical administration. Format: in vivo. The settings on record: female, mouse, po, 3 mg/kg, plasma; for Vd/F: read-out: Apparent Distribution Volume Vz/F; for AUC: read-out: Area Under Curve AUC; for CL/F: read-out: Clearance CL/F; for half-life: read-out: Half-Life t1/2 (converted); for MRT: read-out: Mean Residence Time MRT; for Cmax: read-out: Plasma Conc. Cmax. As to the method: BALB/C nude mice were used as test animals. The drug concentration in plasma at different time points was determined by LC/MS/MS after intragastrical administration of the compounds of Examples 1, 7, 8, 10, 11, 14, 16, 39 and 42 to BALB/C nude mice. The pharmacokinetic behavior of the compounds of the compounds of the present invention was studied and evaluated in BALB/C nude mice.
Eighty-one (81) female BALB/C nude mice, were equally divided into 9 groups, which were purchased from SINO-BRITSH SIPPR/BK LAB. ANIMAL LTD., CO, with Certificate No.: SOCK (Shanghai) 2008-0016.
The appropriate amount of each test compound was weighed, and successively added with 9% PEG400+0.5% tween 80+0.5% PVP+90% aqueous solution of 0.5% CMC.
After an overnight fasting, 81 female BALB/C nude mice were equally divided into 9 groups; and administered the test compounds intragastrically at an administration volume of 0.2 mL/10 g.
81 female Balb/C nude mice were administered the test compounds intragastrically after an overnight fasting. Blood (0.1 mL) was taken (3 animals at each time point) at 0.5, 1.0, 2.0, 4.0, 6.0, 8.0, 11.0, and 24.0 h after administration. The samples were stored in heparinized test tubes, and centrifuged for 10 minutes at 3,500 rpm to separate the blood plasma. The plasma samples were stored at −20° C.
The concentration of the prototype drug in the plasma and in the solution to be administered was determined by liquid chromatography tandem mass spectrometry (LC/MS MS).

Data set [3] relates to MCF7 cells. Briefly: Inhibition of the proliferation of MCF7 cells (Cell Titer-Glo). It is filed as cell-based. The settings on record: Homo sapiens, MCF-7 cells, 72 hours, read-out: IC50 value of inhibition effect on the proliferation of MCF7 cells. As to the method:
The object of this experiment was to determine the inhibition effect of the compounds on the proliferation activity of MCF7 cells, and the in vitro activity of the compounds was evaluated according to the IC50 values.
MCF-7 cells (Cell Bank of Chinese Academy of Sciences typical culture preservation Committee, TChu 74) were inoculated into the MEM medium (Hyclone, SH30024.01B) containing 10% FBS (Gibco, 10099-141), 1% sodium pyruvate (Sigma, S8636), and 1% nonessential amino acids (Sigma, M7145) in a 96-well plate with a density of 40,000 cells/well, and the cells were incubated under the conditions of 37° C., and 5% CO2. The compound was prepared as a 20 mM stock solution that was later diluted to 1000× final concentration with 100% DMSO, and then diluted with 20-fold medium containing 2% FBS. After incubation for 24 hours, the medium was removed and 90 μl of the medium containing 2% FBS and 10 μl of the drug were added to each well, 10 […] of DMSO was added to the control group, and the blank group contained only 100 μl medium containing 2% FBS. The plate was gently shaken and incubated in a incubator at 37° C., 5% CO2. After 72 hours later, 50 μl of mixed Cell Titer-Glo (Promega, G7571) was added to each well. The plate was shaken until the ingredients were mixed uniformly, and placed at room temperature for 10 minutes, then the chemiluminescence signal value was determined. The inhibition effect of the compound AZD9496 at 100 nM on the proliferation of MCF-7 cells was set to 100%, the maximum inhibition rate of other compounds=(chemiluminescence signal valuenegative control−chemiluminescence signal valuecompound 100 nm)/(chemiluminescence signal valuenegative control−chemiluminescence signal valueAZD9496 100 nm)×100%, and the negative control was a well with 0.5% DMSO.
The values of the chemiluminescence signals vs the logarithmic concentrations of the compounds were plotted using Graghpad Prism to obtain the IC50 values.
(Cellular ATP, detected with luciferase, serves as a proxy for viable cell number.)

Take `CC1Cc2cc(-c3cnn(C)c3)ccc2C(c2ccc(/C=C/C(=O)O)cc2)N1c1ccc(C2CC2)cc1` [Example 10, (E)-3-(4-((1R,3R/1S,3S)-2-(4-Cyclopropylphenyl)-3-methyl-6-(1-methyl-1H-pyrazol-4-yl)-1,2,3,4-tetrahydroisoquinolin-1-yl)phenyl)acrylic acid]: in data set [1], the IC50 came out at 1.07 nM. Moreover, in data set [2], the Vd/F came to 3.18 L/kg, the AUC is 6280 ng·h/mL, the CL/F was found to be 7.96 mL/min/kg and the half-life is 4.61 h. For the same compound, in data set [2], the mean residence time (MRT) was 7.08 h and the Cmax came to 1070 ng/mL. Also, in data set [3], the IC50 was determined as 0.3 nM.
Turning to `CC(C)c1ccc(N2C(C)Cc3cc(-c4cnn(C)c4)ccc3C2c2ccc(/C=C/C(=O)O)cc2)cc1` [Example 16, (E)-3-(4-((1R,3R/1S,3S)-2-(4-Isopropylphenyl)-3-methyl-6-(1-methyl-1H-pyrazol-4-yl)-1,2,3,4-tetrahydroisoquinolin-1-yl)phenyl)acrylic acid], the IC50 in data set [1] came out at 2.15 nM. Further, in data set [2], the Vd/F stood at 1.43 L/kg, the AUC was found to be 9120 ng·h/mL, the CL/F turned out to be 5.48 mL/min/kg and the half-life is 3.01 h. In data set [2], the MRT is 4.87 h and the Cmax is 1560 ng/mL. For the same compound, the IC50 in data set [3] amounted to 0.93 nM.
For `Cc1ncc(-c2ccc3c(c2)CC(C)N(c2ccc(C4CC4)cc2)C3c2ccc(/C=C/C(=O)O)cc2)s1` [Example 35, (E)-3-(4-((1R,3R/1S,3S)-2-(4-Cyclopropylphenyl)-3-methyl-6-(2-methylthiazol-5-yl)-1,2,3,4-tetrahydroisoquinolin-1-yl)phenyl)acrylic acid], the IC50 in data set [1] is 1 nM; in data set [3], 1.03 nM.
The like results for `CC1Cc2cc(-c3cn[nH]c3)ccc2C(c2ccc(/C=C/C(=O)O)cc2)N1c1ccc(C2CC2)cc1` [Example 36, (E)-3-(4-((1R,3R/1S,3S)-2-(4-cyclopropylphenyl)-3-methyl-6-(1H-pyrazol-4-yl)-1,2,3,4-tetrahydroisoquinolin-1-yl)phenyl)acrylic acid] were, in that order, 5.63 nM and 2.8 nM.
For `Cc1ccc(N2C(C)Cc3cc(-c4cnn(C)c4)ccc3C2c2ccc(/C=C/C(=O)O)cc2)c(C)c1` [Example 37, (E)-3-(4-((1R,3R/1S,3S)-2-(2,4-Dimethylphenyl)-3-methyl-6-(1-methyl-1H-pyrazol-4-yl)-1,2,3,4-tetrahydroisoquinolin-1-yl)phenyl)acrylic acid] the same measures were 0.84 nM and 1.74 nM.
Take `CCn1cc(-c2ccc3c(c2)C[C@@H](C)N(c2ccc(C(C)C)cc2)[C@@H]3c2c(F)cc(/C=C/C(=O)O)cc2F)cn1` [Example 38, (E)-3-(4-((1S,3R)-6-(1-Ethyl-1H-pyrazol-4-yl)-2-(4-isopropylphenyl)-3-methyl-1,2,3,4-tetrahydroisoquinolin-1-yl)-3,5-difluorophenyl)acrylic acid]: the IC50 was 0.18 nM in data set [1] and 0.38 nM in data set [3].
Take `CC(C)c1ccc(N2[C@H](c3c(F)cc(/C=C/C(=O)O)cc3F)c3ccc(-c4cnn(C)c4)cc3C[C@H]2C)cc1` [Example 39, (E)-3-(3,5-Difluoro-4-((1S,3R)-2-(4-isopropylphenyl)-3-methyl-6-(1-methyl-1H-pyrazol-4-yl)-1,2,3,4-tetrahydroisoquinolin-1-yl)phenyl)acrylic acid]: the IC50 in data set [1] stood at 0.17 nM. In data set [2], the Vd/F was 1.53 L/kg, the exposure (AUC) came out at 10200 ng·h/mL, the CL/F is 4.92 mL/min/kg and the half-life is 3.6 h. Also, in data set [2], the mean residence time MRT was determined as 7.02 h and the Cmax is 1760 ng/mL. For the same compound, in data set [3], the IC50 came out at 0.42 nM.
Turning to `CC1Cc2cc(-c3cnn(C)c3)ccc2C(c2ccc(/C=C/C(=O)O)cc2)N1c1ccc(CC2CC2)cc1` [Example 47, (E)-3-(4-((1R,3R/1S,3S)-2-(4-(Cyclopropylmethyl)phenyl)-3-methyl-6-(1-methyl-1H-pyrazol-4-yl)-1,2,3,4-tetrahydroisoquinolin-1-yl)phenyl)acrylic acid], the figures for the IC50 in data set [1] and in data set [3] were 5.39 nM and 4.9 nM, respectively.
Turning to `CC(C)c1ccc(N2C(C)Cc3cc(-c4cn[nH]c4)ccc3C2c2ccc(/C=C/C(=O)O)cc2)cc1` [Example 48, (E)-3-(4-((1R,3R/1S,3S)-2-(4-Isopropylphenyl)-3-methyl-6-(1H-pyrazol-4-yl)-1,2,3,4-tetrahydroisoquinolin-1-yl)phenyl)acrylic acid], the IC50 amounted to 0.71 nM in data set [1] and 0.59 nM in data set [3].
Take `CC(C)c1ccc(N2C(C)Cc3cc(-c4cnn(C(F)F)c4)ccc3C2c2ccc(/C=C/C(=O)O)cc2)cc1` (centres unmarked) [Example 49]: the IC50 in data set [1] is 3.46 nM; in data set [3], 1.04 nM.

For orientation: AUC means the area under the concentration-time curve, a measure of exposure. As usually defined, the MRT is a mean duration of stay, worked out from the concentration-time curve. A word on the Cmax: it is the peak of the concentration-time curve.
